Measured values as given in patent US6838479B2, “Amidine inhibitors of serine proteases” (Genentech, Inc., priority 2000, dated 2005).
Several values for one entry are separate records, joined by “and”; a condition that tells them apart may be missing. Equal values may be shown once.

Assays:
Type in all cases: biochemical
[1] = target: tissue factor/factor VIIa (Homo sapiens, UniProt P08709); assay: Tissue Factor/Factor VIIa antagonist assay (chromogenic, Ki); conditions: 10 nM VIIa, 30 nM TF, Chromozym-tPA 1.33 mM; read-out: binding affinity to serine proteases: VIIa
Description: Tissue Factor/Factor VIIa Antagonist Assay
This procedure is used to determine the constant of inhibition (Ki) for a sample compound of the invention.
Procedure • 1. Prepare a solution of 2 μg/mL (90 nM) tissue factor and 1.5 μg/mL (30 nM) factor VIIa in assay buffer with CaCl2. • 2. Incubate for 15 minutes at room temperature. • 3. Add 50 μL sample to each well. • 4. Add 50 μL tissue factor/factor VIIa solution to each well. • 5. Incubate for 15 minutes at room temperature with gentle agitation. • 6. Add 50 μL substrate to each well. • 7. Agitate plate for 20-25 sec. • 8. Monitor absorbance at 405 nm every 10 see for a total of 5 minutes at room temperature. • 9. Calculate Vmax over 10 points.

human Factor Xa = target: T1, human Factor Xa (Homo sapiens, UniProt P00742); assay: Factor Xa assay (chromogenic, Ki); conditions: 3.3 nM Xa, S-2222 0.5 mM; read-out: binding affinity to serine proteases: Xa
T1 construct: This complex converts factor X to Xa
Description: (§1) Factor Xa, Thrombin, and Plasma Kallikrein Assays
(§2) These procedures are used to determine the constant of inhibition (Ki) for a sample compound of the invention.
(§3) Procedure • 1. Add 50 μL sample to each well. • 2. Add 50 μL appropriately diluted coagulation factor to each well. • 3. Incubate for 5 minutes at room temperature with gentle agitation. • 4. Add 50 μL appropriately diluted substrate to each well. • 5. Agitate plate for 20-25 sec. • 6. Monitor absorbance at 405 nm every 10 sec for a total of 5 minutes at room temperature. • 7. Calculate Vmax over 10 points.

human Thrombin = target: T2, human Thrombin (Homo sapiens, UniProt P00734); assay: Thrombin assay (chromogenic, Ki); conditions: 8.2 nM thrombin, S-2266 0.3 mM; read-out: binding affinity to serine proteases: thrombin
T2 construct: rapidly converts prothrombin to thrombin
Description: as §1, §2, §3

trypsin = target: T3, trypsin (Bos taurus, UniProt P00760); assay: Trypsin binding affinity; conditions: read-out: binding affinity to serine proteases: trypsin
T3 sequence (P00760 24-246): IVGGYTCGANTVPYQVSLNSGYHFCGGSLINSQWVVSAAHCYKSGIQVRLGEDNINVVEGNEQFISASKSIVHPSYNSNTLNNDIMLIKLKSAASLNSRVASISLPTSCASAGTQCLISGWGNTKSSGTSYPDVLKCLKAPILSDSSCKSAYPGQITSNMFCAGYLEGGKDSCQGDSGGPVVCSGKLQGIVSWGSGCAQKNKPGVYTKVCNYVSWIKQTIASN

plasmin = plasmin (Homo sapiens, UniProt P00747); assay: Plasmin binding affinity; conditions: read-out: binding affinity to serine proteases: plasmin
human Plasma Kallikrein = human Plasma Kallikrein (Homo sapiens, UniProt P03952); assay: Plasma Kallikrein assay (chromogenic, Ki); conditions: 1.5 nM plasma kallikrein, S-2302 0.3 mM; read-out: binding affinity to serine proteases: kallikrein
Description: as §1, §2, §3

Sequence of human Plasma Kallikrein (P03952 391-638 limits assumed): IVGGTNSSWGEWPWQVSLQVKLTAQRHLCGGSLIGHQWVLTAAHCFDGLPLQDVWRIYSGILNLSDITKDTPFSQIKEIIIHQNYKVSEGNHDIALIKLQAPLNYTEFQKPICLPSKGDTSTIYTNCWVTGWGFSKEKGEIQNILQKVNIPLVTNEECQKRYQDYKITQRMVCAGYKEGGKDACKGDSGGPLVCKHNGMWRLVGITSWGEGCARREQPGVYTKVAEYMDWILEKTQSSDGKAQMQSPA
Sequence of human Plasma Kallikrein (P03952 20-390 partner limits assumed): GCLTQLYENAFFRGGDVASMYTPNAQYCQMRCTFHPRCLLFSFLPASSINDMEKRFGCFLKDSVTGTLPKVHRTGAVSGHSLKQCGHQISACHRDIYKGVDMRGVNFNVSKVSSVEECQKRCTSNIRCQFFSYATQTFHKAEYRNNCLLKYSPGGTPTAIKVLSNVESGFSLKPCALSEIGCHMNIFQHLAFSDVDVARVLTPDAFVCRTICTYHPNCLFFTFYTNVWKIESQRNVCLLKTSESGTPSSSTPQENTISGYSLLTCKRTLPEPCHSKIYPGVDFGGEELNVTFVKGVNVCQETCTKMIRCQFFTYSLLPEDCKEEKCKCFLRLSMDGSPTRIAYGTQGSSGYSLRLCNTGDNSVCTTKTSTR
T1 sequence (P00742 235-488 limits assumed): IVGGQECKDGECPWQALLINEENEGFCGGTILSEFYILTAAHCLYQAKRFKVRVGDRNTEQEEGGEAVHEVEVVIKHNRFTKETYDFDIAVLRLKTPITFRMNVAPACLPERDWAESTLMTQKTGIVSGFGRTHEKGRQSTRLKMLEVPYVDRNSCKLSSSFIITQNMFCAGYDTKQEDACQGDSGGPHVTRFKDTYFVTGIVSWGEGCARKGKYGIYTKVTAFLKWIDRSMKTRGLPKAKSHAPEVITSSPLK
T1 sequence (P00742 41-179 limits assumed): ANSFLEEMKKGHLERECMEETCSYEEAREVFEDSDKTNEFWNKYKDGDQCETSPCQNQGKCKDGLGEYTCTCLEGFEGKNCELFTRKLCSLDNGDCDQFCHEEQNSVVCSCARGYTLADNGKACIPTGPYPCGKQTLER
Sequence of plasmin (P00747 581-810 limits assumed, species assumed): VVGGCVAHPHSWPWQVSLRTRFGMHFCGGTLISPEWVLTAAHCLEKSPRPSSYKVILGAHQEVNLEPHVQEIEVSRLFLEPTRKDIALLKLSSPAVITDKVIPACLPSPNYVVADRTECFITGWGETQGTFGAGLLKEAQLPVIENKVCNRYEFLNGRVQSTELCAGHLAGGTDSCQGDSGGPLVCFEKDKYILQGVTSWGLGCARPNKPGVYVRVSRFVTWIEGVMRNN
Sequence of plasmin (P00747 97-580 partner limits assumed, species assumed): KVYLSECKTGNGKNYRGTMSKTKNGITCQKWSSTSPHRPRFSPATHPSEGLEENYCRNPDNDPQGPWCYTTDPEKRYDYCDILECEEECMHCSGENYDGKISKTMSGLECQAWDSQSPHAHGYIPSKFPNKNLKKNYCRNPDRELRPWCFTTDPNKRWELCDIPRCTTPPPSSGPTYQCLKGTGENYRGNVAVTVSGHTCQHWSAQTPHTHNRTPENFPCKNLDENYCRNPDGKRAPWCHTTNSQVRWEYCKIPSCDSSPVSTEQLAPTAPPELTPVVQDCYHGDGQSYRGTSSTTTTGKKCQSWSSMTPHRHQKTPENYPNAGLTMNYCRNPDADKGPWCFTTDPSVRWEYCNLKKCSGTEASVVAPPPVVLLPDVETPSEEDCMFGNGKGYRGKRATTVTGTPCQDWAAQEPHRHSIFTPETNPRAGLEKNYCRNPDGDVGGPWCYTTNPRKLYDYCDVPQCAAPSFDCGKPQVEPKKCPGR
Sequence of tissue factor/factor VIIa (P08709 213-466 limits assumed): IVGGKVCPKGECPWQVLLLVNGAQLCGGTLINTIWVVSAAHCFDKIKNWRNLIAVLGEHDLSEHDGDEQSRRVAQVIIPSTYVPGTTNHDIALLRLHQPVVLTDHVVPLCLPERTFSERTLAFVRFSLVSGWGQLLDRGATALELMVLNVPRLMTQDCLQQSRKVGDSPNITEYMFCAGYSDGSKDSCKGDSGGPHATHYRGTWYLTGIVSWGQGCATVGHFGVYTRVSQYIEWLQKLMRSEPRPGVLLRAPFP
Sequence of tissue factor/factor VIIa (P08709 61-212 limits assumed): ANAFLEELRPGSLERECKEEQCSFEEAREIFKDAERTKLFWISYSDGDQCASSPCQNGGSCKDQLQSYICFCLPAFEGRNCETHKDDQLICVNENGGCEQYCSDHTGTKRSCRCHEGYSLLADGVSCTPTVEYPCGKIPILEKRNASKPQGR
Sequence of tissue factor/factor VIIa (P13726 33-251 partner limits assumed): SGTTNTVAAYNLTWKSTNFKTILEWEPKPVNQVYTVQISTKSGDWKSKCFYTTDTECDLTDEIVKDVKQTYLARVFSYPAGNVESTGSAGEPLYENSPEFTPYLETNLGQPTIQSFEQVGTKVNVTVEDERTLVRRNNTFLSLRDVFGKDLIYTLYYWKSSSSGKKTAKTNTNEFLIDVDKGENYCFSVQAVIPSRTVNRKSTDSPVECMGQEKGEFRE

Structure (SMILES) | Ki [1] | Ki (human Factor Xa) | Ki (human Thrombin) | Ki (trypsin) | Ki (plasmin) | Ki (human Plasma Kallikrein)
CCCN1C[C@H](Oc2cccc(C(=N)N)c2)C[C@H]1C(=O)Nc1ccc(C(=N)N)cc1 [compound 1] | 7.8 µM | 0.297 µM | 4.74 µM | 0.866 µM | 7.36 µM | 6.56 µM
N=C(N)c1ccc(NC(=O)[C@@H]2C[C@@H](Oc3cccc(C(=N)N)c3)CN2Cc2ccccc2[N+](=O)[O-])cc1 [compound 5] | > 39 µM | 2.13 µM | 14.5 µM | 2.14 µM | 7 µM | 16 µM
N=C(N)c1ccc(NC(=O)[C@@H]2C[C@@H](Oc3cccc(C(=N)N)c3)CN2C2CCCCC2)cc1 [compound 6] | > 39 µM | 2.41 µM | – | 5.15 µM | 15 µM | 3.4 µM
N=C(N)c1ccc(NC(=O)[C@@H]2C[C@@H](Oc3cccc(C(=N)N)c3)CN2Cc2ccccc2[N+](=O)[O-])cc1 [compound 7] | > 39 µM | 2.49 µM | 25 µM | 2.22 µM | 7 µM | 20 µM
COc1cc2c(cc1OC)CN(C(=O)[C@@H]1C[C@@H](Oc3cccc(C(=N)N)c3)CN1)CC2 [compound 11] | – | 5.84 µM | 0.875 µM | 0.607 µM | 7.36 µM | 0.979 µM
CC(=O)N1C[C@H](Oc2cccc(C(=N)N)c2)C[C@H]1C(=O)Nc1ccc(C(=N)N)cc1 [compound 14] | > 39 µM | 6.61 µM | > 36.2 µM | 10.1 µM | > 24.5 µM | –
CN(Cc1ccccc1)C(=O)[C@@H]1C[C@@H](Oc2cccc(C(=N)N)c2)CN1Cc1ccccc1 [compound 15] | 156 µM | 6.8 µM | 11 µM | 2.26 µM | 15.4 µM | 34.2 µM
CCCCCCN1C[C@H](Oc2cccc(C(=N)N)c2)C[C@H]1C(=O)Nc1ccc(C(=N)N)cc1 [compound 16] | > 39 µM | 6.81 µM | 29 µM | 6.07 µM | 12 µM | 17 µM
N=C(N)c1cccc(O[C@@H]2C[C@@H](C(=O)Nc3ccc(Cl)cc3)N(C(=O)c3ccccc3)C2)c1 [compound 17] | > 39 µM | 7.88 µM | – | 3.6 µM | – | > 33.8 µM
N=C(N)c1cccc(O[C@@H]2C[C@@H](C(=O)N3CCc4ccccc4C3)N(S(=O)(=O)c3ccccc3)C2)c1 [compound 21] | > 39 µM | 10.5 µM | 14.5 µM | 20.2 µM | – | –
N=C(N)c1ccc(NC(=O)[C@@H]2C[C@@H](Oc3cccc(C(=N)N)c3)CN2Cc2ccc([N+](=O)[O-])cc2)cc1 [compound 22] | > 39 µM | 10.5 µM | > 36 µM | 7.76 µM | 15 µM | 3.4 µM
C=CCOC(=O)[C@@H]1C[C@@H](Oc2cccc(C(=N)N)c2)CN1 [compound 27] | 15.6 µM | 14 µM | – | 14.1 µM | > 24.6 µM | –
N=C(N)c1cccc(O[C@@H]2C[C@@H](C(=O)N3CCc4ccccc4C3)N(C(=O)c3ccccc3)C2)c1 [compound 32] | > 399 µM | 15.3 µM | – | 7.84 µM | – | –
C=CCOC(=O)[C@@H]1C[C@@H](Oc2cccc(C(=N)N)c2)CN1C(=O)c1ccccc1 [compound 36] | – | 19.9 µM and 14 µM | 21.7 µM | 4.26 µM | – | > 33.8 µM
CS(=O)(=O)N1C[C@H](Oc2cccc(C(=N)N)c2)C[C@H]1C(=O)Nc1ccc(Cl)cc1 [compound 52] | > 39 µM | – | > 36.2 µM | 40.5 µM | > 24.5 µM | 27 µM
C=CCOC(=O)[C@@H]1C[C@@H](Oc2cccc(C(=N)N)c2)CN1Cc1ccccc1 [compound 60] | – | – | – | 4.99 µM | – | –
C=CCOC(=O)[C@@H]1C[C@@H](Oc2cccc(C(=N)N)c2)CN1C(C)=O [compound 76] | – | – | > 36.2 µM | 30.3 µM | > 24.5 µM | > 33.8 µM
N=C(N)c1cccc(O[C@H]2CN[C@H](C(=O)Nc3ccccc3)C2)c1 [compound 79] | 19 µM | > 35 µM | > 36 µM | 20 µM | 24 µM | –
COC(=O)[C@@H]1C[C@@H](Oc2cccc(C(=N)N)c2)CN1 [compound 80] | > 39 µM | > 35.1 µM | > 36.2 µM | 28.3 µM | > 24.6 µM | 55 µM
